The results in this text go back to paper PMC7534198, “The structural basis for the selectivity of sulfonamido dicarbaboranes toward cancer-associated carbonic anhydrase IX” (Journal of Enzyme Inhibition and Medicinal Chemistry, 2020).

One test addresses T1, CA II (Homo sapiens, UniProt P00918).
T1 construct: gene CA2; recombinant, expressed in E. coli and purified
The experiment in a line: stopped-flow CO2 hydration. Format: biochemical. The settings on record: 8.5 mM CO2, 20 mM HEPES-Na pH 7.5, 20 mM Na2SO4, 25 °C, 2.5 nM enzyme; Cheng-Prusoff; read-out: In vitro inhibition / Ki (CA II). The text has this: stopped-flow CO2 hydration on CA II

Another test addresses T2, CA IX (Homo sapiens, UniProt Q16790, C174S).
T2 construct: gene CA9; extracellular part, PG and CA domains, residues 38-391, C174S; expressed in HEK 293 cells and purified
The experiment in a line: stopped-flow CO2 hydration. The class given is biochemical. The settings on record: 8.5 mM CO2, 20 mM HEPES-Na pH 7.5, 20 mM Na2SO4, 25 °C, 0.0025% DDM, 0.5 nM enzyme; Cheng-Prusoff; read-out: In vitro inhibition / Ki (CA IX). The text has this: stopped-flow CO2 hydration on CA IX

With 1-H2NSO2(CH2)5-1,2-closo-C2B10H11 [5a], the Ki came to 1300 ± 122 nM on CA II and 14.8 ± 1.98 nM at CA IX.

1-H2NSO2(CH2)6–1,2-closo-C2B10H11 [6a]: the Ki on CA II was 821 ± 70.7 nM; at CA IX, 44.6 ± 4.86 nM.

In the case of “[7-H2NSO2-(CH2)5–7,8-nido-C2B9H11]K [5b^−]”, the Ki at CA II was determined as 299 ± 26 nM; at CA IX it was 10.6 ± 1.37 nM.

With “[7-H2NSO2-(CH2)6–7,8-nido-C2B9H11]K [6b^−]”, the Ki was found to be 29.5 ± 3.32 nM at CA II and 29.3 ± 7.39 nM on CA IX.
